Laboratory results taken from patent publication US20020132319A1, “Peptide mutant of human ERAB or HADH2, its X-ray crystal structure, and materials and method for identification of inhibitors thereof” (priority 2000, published 2002).
Entries after “also recorded” stand apart in the source; their conditions may differ.

Legend:
ERAB or HADH2 = biological target: T1, ERAB or HADH2 (Homo sapiens, UniProt Q99714); experiment: Spectrophotometric ERAB or HADH2 inhibition assay (NADH, acetoacetyl-CoA as substrate); assay type: biochemical
T1 construct: made in house; host or cells: E. coli (plasmid pMGH4)
T1 sequence (Q99714 1-261): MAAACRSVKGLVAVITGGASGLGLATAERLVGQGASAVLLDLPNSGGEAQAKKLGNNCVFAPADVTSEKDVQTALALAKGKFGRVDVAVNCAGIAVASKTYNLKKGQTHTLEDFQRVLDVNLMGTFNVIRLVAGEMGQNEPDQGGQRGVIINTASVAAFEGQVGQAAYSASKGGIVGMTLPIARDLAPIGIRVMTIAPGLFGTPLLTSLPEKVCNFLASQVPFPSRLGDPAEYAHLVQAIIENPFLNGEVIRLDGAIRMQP
Procedure: The IC50 value for Compound I was determined spectrophotometrically by monitoring the […] of NADH to NAD^+ with acetoacetyl-CoA as substrate. Enzyme (2.5 nM) was preincubated with inhibitor for 400 seconds at 30° C. in the presence of 36 uM NADH, 25 mM MOPS, pH 7.5, 250 mM NaCl, 2% (v/v) DMSO, and 2.5 mM TCEP. The reaction was initiated by addition of substrate (38 μM). Reduction of NADH was monitored at […]. The IC50 value was determined by non-linear regression analysis using KaleidaGraph (obtained from Synergy Software, Reading, Pa.).

wild-type ERAB or HADH2 [1] = biological target: T2, wild-type ERAB or HADH2 (Homo sapiens, UniProt Q99714); experiment: Isothermal titration calorimetry, inhibitor binding experiments
T2 construct: made in house; host or cells: E. coli (plasmid pMGH4; spontaneous mutant of strain BL21(DE3), 'B121 (DE3)' [sic])
T2 sequence (Q99714 1-261): T1 sequence (Q99714 1-261)
Procedure: FIG. 5 is a plot of integrated-binding data obtained for a calorimetric titration of wild-type ERAB or HADH2 into Compound I in the presence and absence of cofactor. Wild-type ERAB or HADH2 (415 μM) was titrated into 20 μM inhibitor in the presence and absence of 20 μM cofactor at 15° C. The closed symbols represent the integrated-data points for 10 μL injections of ERAB or HADH2 into inhibitor in the absence of cofactor (♦); in the presence of NAD^+ (●); and in the presence of NADH (▪). The open symbols represent the integrated data points for the corresponding control titrations of ERAB or HADH2 into buffer (Δ); in the presence of NAD^+ (∘); and in the presence of NADH (□). Lines connecting the data points have been added for visual clarity.
(§1) Titrations described herein were performed with an MCS microcalorimeter (obtained from MicroCal, Inc., Northampton, […].).
(§2) For the inhibitor binding experiments, the titrations were performed in 25 mM MOPS (pH 7.5), 125 mM NaCl, 10% glycerol, 2.0% DMSO, 0.5 mM TCEP (Tri(2-carboxyethyl)phosphine), 0.1 mM EDTA at 15° C. The syringe contained 415 μM wild-type ERAB or HADH2 and the cell contained either 20 μM inhibitor, 20 μM cofactor, or 20 μM each of inhibitor and cofactor. After a preliminary 20 μL injection, 12 injections of 10.0 μL each were made at 4 minute intervals. Dilution control titrations of buffer into buffer, protein into buffer, and buffer into inhibitor, cofactor and inhibitor/cofactor mixture were also performed. For the cofactor binding experiments, the titrations were performed in 50 mM MOPS (3-(N-morpholino) propanesulfonic acid, pH 7.5), 250 mM NaCl, 10% glycerol, 2.0% DMSO, 10 mM TCEP at 15° C.

[2] = biological target: E. coli 17β-hydroxysteroid dehydrogenase (Escherichia coli, UniProt P0AET8); experiment: Inhibition of related SDR family member (E. coli enzyme); assay type: biochemical; settings: at concentrations as high as 100 μM
[3] = biological target: Streptomycetes hydrogenans 3α-20β- hydroxysteroid dehydrogenase (Streptomyces exfoliatus, UniProt P19992); experiment: Inhibition of related SDR family member (Streptomyces enzyme); assay type: biochemical; settings: at concentrations as high as 100 μM
wild-type ERAB or HADH2 [4] = biological target: T2, wild-type ERAB or HADH2; experiment: Isothermal titration calorimetry, cofactor binding experiments; settings: 2.68 mM cofactor titrated into 127 μM wild-type ERAB or HADH2, 15° C.; read-out: Kd for NAD+
Procedure: as §1, §2
For the NADH titration, the syringe contained 700 μM cofactor and the cell contained 35 μM wild type ERAB or HADH2. For the NAD^+ titration, the syringe contained 2.68 mM cofactor and the cell contained 127 μM wild-type ERAB or HADH2.

Chain of Streptomycetes hydrogenans 3α-20β- hydroxysteroid dehydrogenase (P19992 whole entry): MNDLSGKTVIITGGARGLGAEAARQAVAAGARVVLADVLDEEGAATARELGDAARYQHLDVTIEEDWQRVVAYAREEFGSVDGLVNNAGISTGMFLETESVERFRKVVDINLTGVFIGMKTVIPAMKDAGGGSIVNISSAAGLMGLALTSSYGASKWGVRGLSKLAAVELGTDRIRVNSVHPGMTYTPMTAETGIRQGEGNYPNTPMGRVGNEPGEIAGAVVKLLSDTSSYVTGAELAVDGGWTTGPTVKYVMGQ
Chain of E. coli 17β-hydroxysteroid dehydrogenase (P0AET8 whole entry): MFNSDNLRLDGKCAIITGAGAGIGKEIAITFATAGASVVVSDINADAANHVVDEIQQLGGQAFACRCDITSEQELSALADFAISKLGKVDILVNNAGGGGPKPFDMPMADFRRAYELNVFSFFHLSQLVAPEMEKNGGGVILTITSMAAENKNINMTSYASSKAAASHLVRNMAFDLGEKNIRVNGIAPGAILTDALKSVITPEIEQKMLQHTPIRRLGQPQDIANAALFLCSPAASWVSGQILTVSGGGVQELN

SMILES	IC50 against ERAB (ERAB or HADH2; Compound I made according to Scheme 1)	average IC50 against ERAB or HADH2 (ERAB or HADH2; Compound I made according to Scheme 2, racemic mixture)	ITC binding to ERAB or HADH2 in the absence of cofactor (wild-type ERAB or HADH2 [1]; ERAB 415 μM titrated into 20 μM inhibitor alone, 15° C.)	ITC binding to ERAB or HADH2 in the presence of NAD+ (wild-type ERAB or HADH2 [1]; ERAB titrated into equimolar 20 μM inhibitor and NAD+, 15° C.)	ITC binding to ERAB or HADH2 in the presence of NADH (wild-type ERAB or HADH2 [1]; ERAB titrated into equimolar 20 μM inhibitor and NADH, 15° C.)	binding to ERAB or HADH2 more potent with NAD+ than in the absence of NAD+ (wild-type ERAB or HADH2 [1]; with NAD+ versus absence of NAD+)	inhibition of E. coli 17β-hydroxysteroid dehydrogenase [2]	inhibition of Streptomycetes hydrogenans 3α-20β-hydroxysteroid dehydrogenase [3]	ITC binding when ERAB or HADH2 titrated into cofactor alone (wild-type ERAB or HADH2 [1]; ERAB 415 μM titrated into 20 μM NAD+ alone, 15° C.)	Kd (wild-type ERAB or HADH2 [4])
O=C(C(c1ccccc1)n1cnc2[nH]ncc2c1=S)N1CCCCCC1 (racemic) [Compound I, 1-azepan-1-yl-2-phenyl-2-(4-thioxo-1,4-dihydro-pyrazolo[3,4-d]pyrimidin-5-yl)-ethanone]	0.088 µM	0.092 ± 0.005 µM	binds weakly; also recorded: No binding was detected	tight-binding curve	binds weakly	approximately 1000 fold	no detectable inhibition	no detectable inhibition	–	–
NC(=O)c1ccc[n+]([C@@H]2O[C@H](COP(=O)([O-])OP(=O)(O)OC[C@H]3O[C@@H](n4cnc5c(N)ncnc54)[C@H](O)[C@@H]3O)[C@@H](O)[C@H]2O)c1 [NAD^+, reference compound]	–	–	–	–	–	–	–	–	No binding was detected	~500 µM
